Key:
TAOK1 = biological target: T1, TAOK1 (Homo sapiens, UniProt Q7L7X3); assay: KINOMEscan 1 μM, TAOK1; type: binding; conditions: 1000 nM; Entrez TAOK1; read-out: Percent Control
T1 construct: purchased Eurofins DiscoverX KINOMEscan
Text: (§1) Supplement cells-12-00287-s001.zip/File S2. KinomeScan data for the CAMKK2 probe and negative control.xlsx, sheet "SGC-CAMKK2-1" | column: Percent Control

p38-beta = biological target: T2, p38-beta (Homo sapiens, UniProt Q15759); assay: KINOMEscan 1 μM, p38-beta; type: binding; conditions: 1000 nM; Entrez MAPK11; read-out: Percent Control
T2 construct: purchased Eurofins DiscoverX KINOMEscan
Text: as §1

PRKG1 = biological target: T3, PRKG1 (Homo sapiens, UniProt Q13976); assay: DiscoverX KINOMEscan binding assay at 1 μM, PRKG1; conditions: Compound Concentration 1000 nM, read-out: Percent Control
T3 construct: purchased Eurofins DiscoverX KINOMEscan
Text: as §1

ERBB4 = biological target: T4, ERBB4 (Homo sapiens, UniProt Q15303); assay: KINOMEscan 1 μM, ERBB4; type: binding; conditions: 1000 nM; Entrez ERBB4; read-out: Percent Control
T4 construct: purchased Eurofins DiscoverX KINOMEscan
Text: as §1

MKNK2 = biological target: T5, MKNK2 (Homo sapiens, UniProt Q9HBH9); assay: KINOMEscan 1 μM, MKNK2; type: binding; conditions: 1000 nM; Entrez MKNK2; read-out: Percent Control
T5 construct: purchased Eurofins DiscoverX KINOMEscan
Text: as §1

TGFBR1 = biological target: T6, TGFBR1 (Homo sapiens, UniProt P36897); assay: DiscoverX KINOMEscan binding assay at 1 μM, TGFBR1; conditions: Compound Concentration 1000 nM, read-out: Percent Control
T6 construct: purchased Eurofins DiscoverX KINOMEscan
Text: as §1

MAP3K4 = biological target: T7, MAP3K4 (Homo sapiens, UniProt Q9Y6R4); assay: KINOMEscan 1 μM, MAP3K4; type: binding; conditions: 1000 nM; Entrez MAP3K4; read-out: Percent Control
T7 construct: purchased Eurofins DiscoverX KINOMEscan
Text: as §1

DDR2 = biological target: T8, DDR2 (Homo sapiens, UniProt Q16832); assay: KINOMEscan 1 μM, DDR2; type: binding; conditions: 1000 nM; Entrez DDR2; read-out: Percent Control
T8 construct: purchased Eurofins DiscoverX KINOMEscan
Text: as §1

CSNK1A1 = biological target: T9, CSNK1A1 (Homo sapiens, UniProt P48729); assay: KINOMEscan 1 μM, CSNK1A1; type: binding; conditions: 1000 nM; Entrez CSNK1A1; read-out: Percent Control
T9 construct: purchased Eurofins DiscoverX KINOMEscan
Text: as §1

ERK5 = biological target: T10, ERK5 (Homo sapiens, UniProt Q13164); assay: KINOMEscan 1 μM, ERK5; type: binding; conditions: 1000 nM; Entrez MAPK7; read-out: Percent Control
T10 construct: purchased Eurofins DiscoverX KINOMEscan
T10 sequence (Q13164 whole entry): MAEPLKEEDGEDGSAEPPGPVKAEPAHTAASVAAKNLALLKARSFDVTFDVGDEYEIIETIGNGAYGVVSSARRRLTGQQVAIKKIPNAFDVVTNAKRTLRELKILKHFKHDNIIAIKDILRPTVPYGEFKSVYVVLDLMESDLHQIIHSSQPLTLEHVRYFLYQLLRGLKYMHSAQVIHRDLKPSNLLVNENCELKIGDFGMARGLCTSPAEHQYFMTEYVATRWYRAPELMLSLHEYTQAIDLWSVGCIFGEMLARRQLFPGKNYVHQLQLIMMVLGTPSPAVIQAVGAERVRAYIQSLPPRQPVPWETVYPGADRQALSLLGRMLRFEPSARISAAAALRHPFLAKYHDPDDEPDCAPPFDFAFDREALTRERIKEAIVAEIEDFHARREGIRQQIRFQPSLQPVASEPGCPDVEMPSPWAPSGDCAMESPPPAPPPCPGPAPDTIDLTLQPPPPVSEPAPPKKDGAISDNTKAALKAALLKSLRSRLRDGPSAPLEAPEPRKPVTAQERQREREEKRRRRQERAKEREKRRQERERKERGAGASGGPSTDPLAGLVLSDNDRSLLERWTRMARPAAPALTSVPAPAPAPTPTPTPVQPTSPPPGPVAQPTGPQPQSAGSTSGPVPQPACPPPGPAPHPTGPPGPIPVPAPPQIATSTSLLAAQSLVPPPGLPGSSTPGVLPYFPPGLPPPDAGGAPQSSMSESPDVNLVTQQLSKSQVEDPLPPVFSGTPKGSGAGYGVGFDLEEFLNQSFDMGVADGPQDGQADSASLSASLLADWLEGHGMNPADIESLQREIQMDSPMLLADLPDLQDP
Text: as §1

CDKL3 = biological target: T11, CDKL3 (Homo sapiens, UniProt Q8IVW4); assay: KINOMEscan 1 μM, CDKL3; type: binding; conditions: 1000 nM; Entrez CDKL3; read-out: Percent Control
T11 construct: purchased Eurofins DiscoverX KINOMEscan
Text: as §1

TNNI3K = biological target: T12, TNNI3K (Homo sapiens, UniProt Q59H18); assay: DiscoverX KINOMEscan binding assay at 1 μM, TNNI3K; conditions: Compound Concentration 1000 nM, read-out: Percent Control
T12 construct: purchased Eurofins DiscoverX KINOMEscan
Text: as §1

NEK2 = biological target: T13, NEK2 (Homo sapiens, UniProt P51955); assay: KINOMEscan 1 μM, NEK2; type: binding; conditions: 1000 nM; Entrez NEK2; read-out: Percent Control
T13 construct: purchased Eurofins DiscoverX KINOMEscan
Text: as §1

BTK = biological target: T14, BTK (Homo sapiens, UniProt Q06187); assay: KINOMEscan 1 μM, BTK; type: binding; conditions: 1000 nM; Entrez BTK; read-out: Percent Control
T14 construct: purchased Eurofins DiscoverX KINOMEscan
T14 sequence (Q06187 whole entry): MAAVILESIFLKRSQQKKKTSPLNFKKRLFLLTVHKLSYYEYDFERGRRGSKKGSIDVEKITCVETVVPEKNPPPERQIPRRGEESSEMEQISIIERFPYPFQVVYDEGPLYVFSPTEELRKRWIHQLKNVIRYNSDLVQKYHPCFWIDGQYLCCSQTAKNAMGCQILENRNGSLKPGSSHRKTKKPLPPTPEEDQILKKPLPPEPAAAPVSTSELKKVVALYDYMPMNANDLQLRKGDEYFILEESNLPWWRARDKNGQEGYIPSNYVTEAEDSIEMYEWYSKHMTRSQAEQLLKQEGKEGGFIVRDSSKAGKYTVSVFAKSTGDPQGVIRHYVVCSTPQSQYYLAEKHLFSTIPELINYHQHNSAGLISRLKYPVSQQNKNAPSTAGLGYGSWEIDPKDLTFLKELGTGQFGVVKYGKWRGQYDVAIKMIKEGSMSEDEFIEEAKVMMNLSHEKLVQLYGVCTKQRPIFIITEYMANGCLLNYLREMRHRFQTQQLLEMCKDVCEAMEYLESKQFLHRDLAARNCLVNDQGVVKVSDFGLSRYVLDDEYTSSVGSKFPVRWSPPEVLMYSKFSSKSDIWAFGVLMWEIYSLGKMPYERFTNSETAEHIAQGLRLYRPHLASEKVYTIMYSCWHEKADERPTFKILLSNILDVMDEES
Text: as §1

BRSK1 = biological target: T15, BRSK1 (Homo sapiens, UniProt Q8TDC3); assay: KINOMEscan 1 μM, BRSK1; type: binding; conditions: 1000 nM; Entrez BRSK1; read-out: Percent Control
T15 construct: purchased Eurofins DiscoverX KINOMEscan
Text: as §1

ACVR1 [1] = biological target: T16, ACVR1 (Homo sapiens, UniProt Q04771); assay: KINOMEscan 1 μM, ACVR1; type: binding; conditions: 1000 nM; Entrez ACVR1; read-out: Percent Control
T16 construct: purchased Eurofins DiscoverX KINOMEscan
T16 sequence (Q04771 21-509): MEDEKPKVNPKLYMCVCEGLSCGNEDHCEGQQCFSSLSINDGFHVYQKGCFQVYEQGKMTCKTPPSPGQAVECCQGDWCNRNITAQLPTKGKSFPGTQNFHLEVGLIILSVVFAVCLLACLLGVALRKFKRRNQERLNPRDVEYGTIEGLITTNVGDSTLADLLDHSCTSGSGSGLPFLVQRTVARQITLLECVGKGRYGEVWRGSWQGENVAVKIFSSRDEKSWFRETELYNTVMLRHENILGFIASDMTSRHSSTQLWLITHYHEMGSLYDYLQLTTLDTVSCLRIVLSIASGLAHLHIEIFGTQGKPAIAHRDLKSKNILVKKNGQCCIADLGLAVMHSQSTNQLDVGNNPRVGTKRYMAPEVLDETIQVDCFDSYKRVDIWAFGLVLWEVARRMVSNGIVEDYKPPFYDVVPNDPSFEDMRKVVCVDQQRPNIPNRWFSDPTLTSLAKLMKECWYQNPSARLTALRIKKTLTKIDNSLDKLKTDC
Text: as §1

BMPR1A = biological target: T17, BMPR1A (Homo sapiens, UniProt P36894); assay: KINOMEscan 1 μM, BMPR1A; type: binding; conditions: 1000 nM; Entrez BMPR1A; read-out: Percent Control
T17 construct: purchased Eurofins DiscoverX KINOMEscan
Text: as §1

[2] = biological target: T18, JAK1(JH2domain-pseudokinase) (Homo sapiens, UniProt P23458); assay: KINOMEscan 1 μM, JAK1(JH2domain-pseudokinase); type: binding; conditions: 1000 nM; Entrez JAK1; read-out: Percent Control
T18 construct: JAK1(JH2domain-pseudokinase); purchased Eurofins DiscoverX KINOMEscan
Text: as §1

NDR1 = biological target: T19, NDR1 (Homo sapiens, UniProt Q15208); assay: KINOMEscan at 1 μM, NDR1; type: binding; conditions: 1000 nM, read-out: Percent Control
T19 construct: purchased Eurofins DiscoverX KINOMEscan
T19 sequence (Q15208 whole entry): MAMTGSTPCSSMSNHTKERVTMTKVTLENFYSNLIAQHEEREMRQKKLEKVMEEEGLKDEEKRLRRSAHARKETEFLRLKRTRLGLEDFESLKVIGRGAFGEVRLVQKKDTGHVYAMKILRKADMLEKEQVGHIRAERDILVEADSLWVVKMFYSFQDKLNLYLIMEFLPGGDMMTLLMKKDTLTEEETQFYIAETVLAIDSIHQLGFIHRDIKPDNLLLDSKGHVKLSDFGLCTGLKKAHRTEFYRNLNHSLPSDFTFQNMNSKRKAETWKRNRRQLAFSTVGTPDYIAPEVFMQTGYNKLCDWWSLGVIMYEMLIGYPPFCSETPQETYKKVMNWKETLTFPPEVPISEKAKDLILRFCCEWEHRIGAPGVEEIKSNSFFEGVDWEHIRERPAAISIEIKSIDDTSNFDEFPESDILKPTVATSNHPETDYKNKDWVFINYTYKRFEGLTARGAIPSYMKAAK
Text: (§2) Supplement cells-12-00287-s001.zip/File S2. KinomeScan data for the CAMKK2 probe and negative control.xlsx, sheet "SGC-CAMKK2-1N" | column: Percent Control

p38-delta = biological target: T20, p38-delta (Homo sapiens, UniProt O15264); assay: KINOMEscan at 1 μM, p38-delta; type: binding; conditions: 1000 nM, read-out: Percent Control
T20 construct: purchased Eurofins DiscoverX KINOMEscan
Text: as §2

JNK2 = biological target: T21, JNK2 (Homo sapiens, UniProt P45984); assay: KINOMEscan at 1 μM, JNK2; type: binding; conditions: 1000 nM, read-out: Percent Control
T21 construct: purchased Eurofins DiscoverX KINOMEscan
T21 sequence (P45984 whole entry): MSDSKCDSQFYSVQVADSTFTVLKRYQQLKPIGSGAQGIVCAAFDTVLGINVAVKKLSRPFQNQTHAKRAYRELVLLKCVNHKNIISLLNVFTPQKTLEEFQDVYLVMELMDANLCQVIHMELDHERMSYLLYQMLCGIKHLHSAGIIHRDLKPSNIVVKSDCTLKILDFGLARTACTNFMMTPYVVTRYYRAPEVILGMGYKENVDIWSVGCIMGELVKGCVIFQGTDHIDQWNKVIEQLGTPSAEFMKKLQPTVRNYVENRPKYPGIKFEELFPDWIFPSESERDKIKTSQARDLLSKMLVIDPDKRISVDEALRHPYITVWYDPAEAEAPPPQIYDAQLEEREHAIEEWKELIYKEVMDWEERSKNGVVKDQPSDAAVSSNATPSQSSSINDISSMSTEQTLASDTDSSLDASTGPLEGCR
Text: as §2

CLK2 = biological target: T22, CLK2 (Homo sapiens, UniProt P49760); assay: KINOMEscan at 1 μM, CLK2; type: binding; conditions: 1000 nM, read-out: Percent Control
T22 construct: purchased Eurofins DiscoverX KINOMEscan
Text: as §2

[3] = biological target: T23, ABL1(H396P)-nonphosphorylated (Homo sapiens, UniProt P00519, H396P); assay: KINOMEscan at 1 μM, ABL1(H396P)-nonphosphorylated; type: binding; conditions: 1000 nM, read-out: Percent Control
T23 construct: purchased Eurofins DiscoverX KINOMEscan
Text: as §2

ROS1 = biological target: T24, ROS1 (Homo sapiens, UniProt P08922); assay: KINOMEscan binding assay at 1 μM, ROS1; conditions: Compound Concentration 1000 nM; read-out: Percent Control
T24 construct: purchased Eurofins DiscoverX KINOMEscan
Text: as §2

PRKCE = biological target: T25, PRKCE (Homo sapiens, UniProt Q02156); assay: KINOMEscan binding assay at 1 μM, PRKCE; conditions: Compound Concentration 1000 nM; read-out: Percent Control
T25 construct: purchased Eurofins DiscoverX KINOMEscan
Text: as §2

SNARK = biological target: T26, SNARK (Homo sapiens, UniProt Q9H093); assay: KINOMEscan at 1 μM, SNARK; type: binding; conditions: 1000 nM, read-out: Percent Control
T26 construct: purchased Eurofins DiscoverX KINOMEscan
T26 sequence (Q9H093 whole entry): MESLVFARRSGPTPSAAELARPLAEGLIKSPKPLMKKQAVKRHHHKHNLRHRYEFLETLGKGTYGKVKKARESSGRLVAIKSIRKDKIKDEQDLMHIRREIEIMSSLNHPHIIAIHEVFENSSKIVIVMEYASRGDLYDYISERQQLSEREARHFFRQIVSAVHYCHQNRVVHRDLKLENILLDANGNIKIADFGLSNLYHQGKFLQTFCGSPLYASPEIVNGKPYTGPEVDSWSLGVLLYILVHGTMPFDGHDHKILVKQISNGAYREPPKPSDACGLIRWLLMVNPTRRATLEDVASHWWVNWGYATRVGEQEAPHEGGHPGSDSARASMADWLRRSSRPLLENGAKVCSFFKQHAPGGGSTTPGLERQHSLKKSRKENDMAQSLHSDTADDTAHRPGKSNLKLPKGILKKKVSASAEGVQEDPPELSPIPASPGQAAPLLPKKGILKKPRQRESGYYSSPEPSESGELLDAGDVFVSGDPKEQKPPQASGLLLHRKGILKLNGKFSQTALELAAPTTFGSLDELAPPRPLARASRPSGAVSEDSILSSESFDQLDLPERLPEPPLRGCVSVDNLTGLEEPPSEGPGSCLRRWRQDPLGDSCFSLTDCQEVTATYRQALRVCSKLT
Text: as §2

ACVR1 [4] = biological target: T16, ACVR1; assay: KINOMEscan at 1 μM, ACVR1; type: binding; conditions: 1000 nM, read-out: Percent Control
Text: as §2

STK16 = biological target: T27, STK16 (Homo sapiens, UniProt O75716); assay: KINOMEscan at 1 μM, STK16; type: binding; conditions: 1000 nM, read-out: Percent Control
T27 construct: purchased Eurofins DiscoverX KINOMEscan
Text: as §2

ABL1-nonphosphorylated = biological target: T28, ABL1-nonphosphorylated (Homo sapiens, UniProt P00519); assay: KINOMEscan at 1 μM, ABL1-nonphosphorylated; type: binding; conditions: 1000 nM, read-out: Percent Control
T28 construct: purchased Eurofins DiscoverX KINOMEscan
Text: as §2

YES = biological target: T29, YES (Homo sapiens, UniProt P07947); assay: KINOMEscan at 1 μM, YES; type: binding; conditions: 1000 nM, read-out: Percent Control
T29 construct: purchased Eurofins DiscoverX KINOMEscan
Text: as §2

PKN1 = biological target: T30, PKN1 (Homo sapiens, UniProt Q16512); assay: KINOMEscan binding assay at 1 μM, PKN1; conditions: Compound Concentration 1000 nM; read-out: Percent Control
T30 construct: purchased Eurofins DiscoverX KINOMEscan
Text: as §2

EPHB1 = biological target: T31, EPHB1 (Homo sapiens, UniProt P54762); assay: KINOMEscan at 1 μM, EPHB1; type: binding; conditions: 1000 nM, read-out: Percent Control
T31 construct: purchased Eurofins DiscoverX KINOMEscan
Text: as §2

TGFBR2 = biological target: T32, TGFBR2 (Homo sapiens, UniProt P37173); assay: KINOMEscan binding assay at 1 μM, TGFBR2; conditions: Compound Concentration 1000 nM; read-out: Percent Control
T32 construct: purchased Eurofins DiscoverX KINOMEscan
T32 sequence (P37173 23-567): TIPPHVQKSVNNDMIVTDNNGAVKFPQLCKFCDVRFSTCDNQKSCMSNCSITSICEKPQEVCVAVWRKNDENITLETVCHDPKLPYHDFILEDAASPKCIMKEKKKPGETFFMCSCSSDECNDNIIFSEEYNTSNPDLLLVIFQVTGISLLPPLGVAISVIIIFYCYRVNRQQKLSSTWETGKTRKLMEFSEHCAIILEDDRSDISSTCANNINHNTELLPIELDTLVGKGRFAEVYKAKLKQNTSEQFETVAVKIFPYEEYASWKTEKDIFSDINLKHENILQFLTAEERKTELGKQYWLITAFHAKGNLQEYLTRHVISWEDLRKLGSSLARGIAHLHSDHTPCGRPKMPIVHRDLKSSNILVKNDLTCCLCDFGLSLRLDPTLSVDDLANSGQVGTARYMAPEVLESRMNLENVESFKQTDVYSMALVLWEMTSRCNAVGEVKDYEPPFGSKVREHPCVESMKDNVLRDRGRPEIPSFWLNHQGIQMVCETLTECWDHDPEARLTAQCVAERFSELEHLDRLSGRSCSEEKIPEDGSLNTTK
Text: as §2

SGK = biological target: T33, SGK (Homo sapiens, UniProt O00141); assay: KINOMEscan at 1 μM, SGK; type: binding; conditions: 1000 nM, read-out: Percent Control
T33 construct: purchased Eurofins DiscoverX KINOMEscan
Text: as §2

T1 sequence (Q7L7X3 whole entry): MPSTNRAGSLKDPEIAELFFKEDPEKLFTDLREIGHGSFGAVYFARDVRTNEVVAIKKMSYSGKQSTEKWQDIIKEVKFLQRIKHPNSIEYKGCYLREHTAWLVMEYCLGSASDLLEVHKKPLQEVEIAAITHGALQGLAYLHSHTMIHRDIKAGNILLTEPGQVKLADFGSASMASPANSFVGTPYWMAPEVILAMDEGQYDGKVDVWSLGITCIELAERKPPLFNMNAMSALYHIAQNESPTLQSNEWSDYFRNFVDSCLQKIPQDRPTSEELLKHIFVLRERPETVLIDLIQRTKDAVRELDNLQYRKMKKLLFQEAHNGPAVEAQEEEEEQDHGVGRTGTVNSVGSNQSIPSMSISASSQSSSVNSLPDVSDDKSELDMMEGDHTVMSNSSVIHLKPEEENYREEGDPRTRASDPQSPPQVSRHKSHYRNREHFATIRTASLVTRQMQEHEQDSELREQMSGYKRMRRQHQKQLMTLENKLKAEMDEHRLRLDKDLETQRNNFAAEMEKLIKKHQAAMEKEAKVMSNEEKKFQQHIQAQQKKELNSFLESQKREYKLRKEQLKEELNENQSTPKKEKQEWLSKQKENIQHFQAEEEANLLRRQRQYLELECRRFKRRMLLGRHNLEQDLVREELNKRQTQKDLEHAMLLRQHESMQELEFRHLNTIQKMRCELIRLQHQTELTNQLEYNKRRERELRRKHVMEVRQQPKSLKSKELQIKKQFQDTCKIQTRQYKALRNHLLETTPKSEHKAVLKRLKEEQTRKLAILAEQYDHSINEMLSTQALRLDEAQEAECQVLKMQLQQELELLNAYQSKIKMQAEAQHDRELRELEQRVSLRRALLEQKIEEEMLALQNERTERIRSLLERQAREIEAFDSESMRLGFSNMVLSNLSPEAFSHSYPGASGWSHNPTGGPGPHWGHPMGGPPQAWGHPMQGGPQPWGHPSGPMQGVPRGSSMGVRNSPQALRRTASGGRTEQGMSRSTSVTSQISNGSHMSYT

`Cc1cccc(-c2cnc3occ(-c4ccc(C(=O)O)c(C5CCCC5)c4)c3c2)c1` [SGC-CAMKK2-1 (YL-36)] showed a remaining binding at 1 µM (TAOK1) of 78%, a remaining binding at 1 µM (p38-beta) of 100% and a remaining binding at 1 µM (PRKG1) of 100%. It also gave a remaining binding at 1 µM (ERBB4) of 100%, a remaining binding at 1 µM (MKNK2) of 100% and a remaining binding at 1 µM (TGFBR1) of 100%. For the same compound, the remaining binding at 1 µM (MAP3K4) was 100%, the remaining binding at 1 µM (DDR2) was 100% and the remaining binding at 1 µM (CSNK1A1) was 78%. The remaining binding at 1 µM (ERK5) was 100%, the remaining binding at 1 µM (CDKL3) was 96% and the remaining binding at 1 µM (TNNI3K) was 100%. The remaining binding at 1 µM (NEK2) was 100%, the remaining binding at 1 µM (BTK) was 100% and the remaining binding at 1 µM (BRSK1) was 82%. The remaining binding at 1 µM (ACVR1 [1]) was 83%, the remaining binding at 1 µM (BMPR1A) was 100% and the remaining binding at 1 µM [2] was 90%.

`O=C(O)c1ccc(-c2coc3ncc(-c4ccccc4)cc23)cc1Cl` [SGC-CAMKK2-1N (UNC-YL-83)] was tested, and the remaining binding at 1 µM (NDR1) was 87%, the remaining binding at 1 µM (p38-delta) was 98% and the remaining binding at 1 µM (JNK2) was 76%. The remaining binding at 1 µM (CLK2) was 62%, the remaining binding at 1 µM [3] was 64% and the remaining binding at 1 µM (ROS1) was 100%. The remaining binding at 1 µM (PRKCE) was 100%, the remaining binding at 1 µM (SNARK) was 90% and the remaining binding at 1 µM (ACVR1 [4]) was 85%. For the same compound, the remaining binding at 1 µM (STK16) was 42%, the remaining binding at 1 µM (ABL1-nonphosphorylated) was 66% and the remaining binding at 1 µM (YES) was 87%. For the same compound, the remaining binding at 1 µM (PKN1) was 100%, the remaining binding at 1 µM (EPHB1) was 91% and the remaining binding at 1 µM (TGFBR2) was 100%. The remaining binding at 1 µM (SGK) was 79%.
